{"source": "patent US20190117653A1", "about": "“SYSTEMS AND METHODS FOR TREATING BACTERIAL INFECTION” (priority 2016, published 2019)", "key": {"QTc interval": {"test_system": "QTc interval", "assay": "single-dose ECG study in healthy human volunteers (1.6 and 3.2 mg/kg)", "assay_type": "in vivo", "conditions": "3.2 mg/kg infused over 30 minutes", "method": "Based on this, a single-dose ECG-study was conducted in healthy human volunteers, where 1.6 mg/kg and 3.2 mg/kg iclaprim was infused over 30 minutes. […] Maximal increases coincided with Cmax levels and were rapidly reversible. Weight-based dosing with 1.6 mg/kg was thus assessed as acceptable for clinical purposes, whereas weight-based dosing at 3.2 mg/kg was associated with relevant QTc prolongations (>60 msec) and nonspecific T-wave alterations, and was not used for further clinical studies."}, "[1]": {"test_system": "methicillin-resistant Staphylococcus aureus (MRSA) isolates nonsusceptible to daptomycin, linezolid or vancomycin", "assay": "broth microdilution susceptibility of MRSA nonsusceptible to daptomycin, linezolid or vancomycin", "assay_type": "cell-based", "method": "Antibacterial susceptibility testing was conducted on a range of MRSA strains and isolates with varying susceptibilities to several recognized antistaphylococcal antibiotics. Susceptibility testing was performed by broth microdilution in accordance with the Clinical and Laboratory and Standards Institute (CLSI) guidelines. Minimum inhibitory concentrations (MICs) were based on CLSI criteria."}, "E. coli ATCC 25922": {"test_system": "E. coli ATCC 25922", "assay": "MIC with/without bovine pulmonary surfactant", "assay_type": "cell-based", "conditions": "Escherichia coli", "method": "(§1) Antibacterial susceptibility testing was measured by JMI Labs (North Liberty, Iowa, USA). […] These clinical isolates were collected from US (n=4), Mexico (n=2), and Italy (n=1). Susceptibility testing was performed by broth microdilution in accordance with the Clinical and Laboratory and Standards Institute (CLSI) guidelines M07-A10 (2015) and the standard operating procedures at JMI laboratories. Minimum inhibitory concentrations (MICS) were based on CLSI criteria (2015). There are no published breakpoints for iclaprim. E. coli, K. pneumoniae, M. catarrhalis, E. faecalis, and S. aureus were tested in cation-adjusted Mueller-Hinton broth (CA-MHB). S. pneumoniae were tested in CA-MHB supplemented with 2.5-5% lysed horse blood, and H. influenza were tested in Haemophilus test medium. Quality control and interpretation of results were performed in accordance with CLSI M100-S26 (2016) methods. QC ranges for iclaprim were those approved by CLSI and published in M100-S26 (2016). Iclaprim and comparator antibiotic MIC results were within the CLSI published ranges against E. coli ATCC 25922, E. faecalis ATCC 29212, E. faecalis ATCC 33186, H. influenzae ATCC 49247, K. pneumoniae ATCC 700603 (ESBL phenotype), S. aureus ATCC 29213, and S. pneumoniae ATCC 49619. Isolates were tested with MIC panels (ThermoFisher Scientific, Cleveland, Ohio, USA) of comparator antibiotics (daptomycin and levofloxacin).\n(§2) Because bovine pulmonary surfactant can introduce cloudiness to the MIC testing media, antimicrobial growth inhibition was also evaluated using the colorimetric metabolic indicator resazurin (Camlab Ltd., Cambridge, UK). […] S. pneumoniae panels were omitted from resazurin analysis because the color change was obscured by the lysed horse blood present in the test medium. Growth inhibition was then evaluated as a visible color change from blue (no growth) to pink (robust growth) and recorded as a MIC1z value.\n(§3) The MICs of iclaprim, levofloxacin, and daptomycin were determined against Gram-positive and Gram-negative isolates.\n(§4) A new vial of bovine pulmonary surfactant (BPS; Survanta®; Abbott Laboratories, Columbus, Ohio) was utilized for each independent experiment. Each vial was mixed thoroughly and a 100 μL aliquot was spread on an agar plate, which was incubated overnight to confirm sterility. […] The concentration of surfactant was expressed in terms of percent volume of Survanta® suspension, which consisted of phospholipid (25 mg/mL) and surfactant proteins (<1 mg/mL) in 0.9% sodium chloride solution (Goerke, 1998). MICs of daptomycin were determined in CAMHB with the Ca^2+ content adjusted to 50 mg/L."}, "H. influenzae ATCC 49247": {"test_system": "H. influenzae ATCC 49247", "assay": "MIC with/without bovine pulmonary surfactant", "assay_type": "cell-based", "conditions": "Haemophilus influenzae", "method": "as §1, §2, §3, §4"}, "S. aureus ATCC 29213": {"test_system": "S. aureus ATCC 29213", "assay": "MIC with/without bovine pulmonary surfactant", "assay_type": "cell-based", "conditions": "Staphylococcus aureus", "method": "as §1, §2, §3, §4"}, "[2]": {"test_system": "isolated rabbit Purkinje fibers"}}, "note": "Where two headings read alike, the source gives them in different places.", "data": [{"smiles": "COc1cc(Cc2cnc(N)nc2N)c2c(c1OC)OC(C1CC1)C=C2", "note": "(racemic) [Iclaprim]", "values": [{"measurement": "QTc prolongation", "setting": "QTc interval", "result": "> 60", "unit": "ms"}, {"measurement": "isolates with MIC≤1 μg/ml", "setting": "[1]; MRSA nonsusceptible to daptomycin (5 of 7)", "result": 71.4, "unit": "%"}, {"measurement": "isolates with MIC≤1 μg/ml", "setting": "[1]; MRSA nonsusceptible to linezolid (25 of 25)", "result": 100, "unit": "%"}, {"measurement": "isolates with MIC≤1 μg/ml", "setting": "[1]; MRSA nonsusceptible to vancomycin (18 of 27)", "result": 66.7, "unit": "%"}, {"measurement": "MIC", "setting": "E. coli ATCC 25922; ATCC25922, 2.5% v/v BPS, read-out: MIC, CLSI: +BPS", "result": 0.5, "unit": "µg/mL"}, {"measurement": "MIC", "setting": "E. coli ATCC 25922; ATCC25922, 2.5% v/v BPS, read-out: MIC, Resazurin: +BPS", "result": 1, "unit": "µg/mL"}, {"measurement": "MIC", "setting": "E. coli ATCC 25922; ATCC25922, no BPS, read-out: MIC, CLSI", "result": 0.5, "unit": "µg/mL"}, {"measurement": "MIC", "setting": "E. coli ATCC 25922; ATCC25922, no BPS, read-out: MIC, Resazurin", "result": 1, "unit": "µg/mL"}, {"measurement": "MIC", "setting": "H. influenzae ATCC 49247; ATCC49247, 2.5% v/v BPS, read-out: MIC, Resazurin: +BPS", "result": 0.25, "unit": "µg/mL"}, {"measurement": "MIC", "setting": "H. influenzae ATCC 49247; ATCC49247, no BPS, read-out: MIC, Resazurin", "result": 0.25, "unit": "µg/mL"}, {"measurement": "MIC", "setting": "S. aureus ATCC 29213; ATCC29213, 2.5% v/v BPS, read-out: MIC, CLSI: +BPS", "result": 0.06, "unit": "µg/mL"}, {"measurement": "MIC", "setting": "S. aureus ATCC 29213; ATCC29213, 2.5% v/v BPS, read-out: MIC, Resazurin: +BPS", "result": 0.06, "unit": "µg/mL"}, {"measurement": "MIC", "setting": "S. aureus ATCC 29213; ATCC29213, no BPS, read-out: MIC, CLSI", "result": 0.06, "unit": "µg/mL"}, {"measurement": "MIC", "setting": "S. aureus ATCC 29213; ATCC29213, no BPS, read-out: MIC, Resazurin", "result": 0.06, "unit": "µg/mL"}, {"measurement": "concentration at which action potential duration was increased", "setting": "[2]", "result": "above 1 μM"}]}]}
